From US20060275816A1, “Methods for identifying drug pharmacology and toxicology” (priority 2005, published 2006)
Entries after “also recorded” stand apart in the source; their conditions may differ. Like-named read-outs stand apart in the source and are kept apart here.

Assays:
[1] = tested on: HepG2 cells; assay: Cytotoxicity, CellTiter Blue Cell Viability Assay (LD50); assay type: cell-based
Method: FIG. 3 provides a graphical illustration of an experimental approach used to assess candidate compounds. (1) Cells were plated and allowed to adhere for one day. At that time various concentrations of compound were added to cells and incubated for an additional 72 hours. […] (2) Cells were plated as above and treated with compound at the predetermined LD50 concentration. Following 24 hours incubation in the presence of compound, cells were collected, RNA was harvested and 3) analyzed using the RiboChip.
In an embodiment, human hepatocellular carcinoma HepG2 cells were used to test the effect of a compound on liver biology and toxicology. […] In an embodiment, a single acute dose of a compound is used. […] The choice of high dose identifies the possible modes of toxicity and detects low-incidence responses.
Cells were maintained as recommended in Minimal Essential Medium (MEM) (Gibco-BRL, a Division of Invitrogen, Carlsbad, Calif.) with 10% fetal bovine serum (FBS, HyClone, Logan, Utah) supplemented with antibiotics in p150 plates at 37° C., 5% CO2. Cells were split 1:5 and fresh media added every 3 days.
Cytotoxicity was assessed using the Alamar Blue-based CellTiter™ Blue Cell Viability Assay (Promega, Madison, Wis.) to determine the viable cell fraction that remained following a 72 hour treatment period. Cells (˜8,000 cells/well) were plated in 96 well BioCoat collagen coated plates (Becton Dickinson, Franklin Lakes, N.J.) using standard media. […] Cells were then allowed to recover for 24 hours at 37° C., 5% CO2. A two (2) fold dilution series was prepared for each compound starting at 3.0 mM in MEM containing 0.1% BSA (instead of 10% FBS) but without phenol red or antibiotics. Following the cell recovery period, the media was removed and fresh media containing compound was added. Treatments were performed in triplicate for each compound at each dose. Cells were incubated with compound for 72 hours at 37° C., 5% CO2. The viable cell fraction remaining was determined by washing the wells with fresh media without indicator, lysing the remaining live cells by adding 0.9% Triton X-100 (Sigma, St. Louis, Mo.) in water, and performing the Alamar Blue assay as described in the CellTiter™ Blue Cell Viability Assay product literature.

[2] = tested on: HepG2 cells; assay: Apoptosis, Apo-ONE Homogeneous Caspase-3/7 Assay; assay type: cell-based, human; details: 24 hours
[3] = patients; Lebovitz 2002; cited from earlier work
[4] = tested on: CCR2 mRNA; assay: Quantitative Real Time PCR of CCR2 mRNA in TZD-treated cells; details: HepG2 cells, LD50 concentration, 24 hours, compound alone
[5] = HepG2 cells, concentration giving 50% cell death after 72 hours

## CCCCCCCCCCCCCCC(Br)C(=O)O (stereo not drawn) [2-Bromohexadecanoic Acid]
[1]; [5]
  LD50: 94 µM

## CCCCC/C=C/C=C1/C(=O)C=C[C@@H]1C/C=C\CCCC(=O)O [15-Deoxy-Δ^12,14-Prostaglandin J2]
[1]
  LD50: 34 µM

## CC(C)(Oc1ccc(CCNC(=O)c2ccc(Cl)cc2)cc1)C(=O)O [Bezafibrate]
[1]; [5]
  LD50: 1940 µM

## CC1(COc2ccc(CC3SC(=O)NC3=O)cc2)CCCCC1 (stereo not drawn) [Ciglitazone]
[2]
  induction of apoptosis (Caspase 3/7 activity): potent inducers of apoptosis
[1]
  cell death at 175 μM: significant cell death
[1]; human, 72 h
  LD50: 76 µM

## CCOC(=O)C(C)(C)Oc1ccc(Cl)cc1 [Clofibrate]
[1]; [5]
  LD50: 240 µM

## CCCCC(CC)COC(=O)c1ccccc1C(=O)OCC(CC)CCCC (stereo not drawn) [Diethylhexylphthalate]
[1]; [5]
  LD50: 34 µM

## CC(C)OC(=O)C(C)(C)Oc1ccc(C(=O)c2ccc(Cl)cc2)cc1 [Fenofibrate]
[1]; human, 72 h
  LD50: 500 µM

## O=C(Nc1ccccc1)c1cc([N+](=O)[O-])ccc1Cl [GW-9662]
[1]
  LD50: 125 µM

## Cc1ccc(C)c(OCCCC(C)(C)C(=O)O)c1 [Gemfibrozil]
[1]; [5]
  LD50: 163 µM

## O=C(O)C(F)(F)C(F)(F)C(F)(F)C(F)(F)C(F)(F)C(F)(F)C(F)(F)F [Perfluourooctanoic Acid]
[1]; [5]
  LD50: 191 µM

## CCc1ccc(CCOc2ccc(CC3SC(=O)NC3=O)cc2)nc1 (stereo not drawn) [Pioglitazone]
[2]
  induction of apoptosis (Caspase 3/7 activity): did not induce apoptosis at all or only modestly did so; also recorded: undetectable

## CN(CCOc1ccc(CC2SC(=O)NC2=O)cc1)c1ccccn1 (stereo not drawn) [Rosiglitazone]
[2]
  induction of apoptosis (Caspase 3/7 activity): did not induce apoptosis at all or only modestly did so

## Cc1c(C)c2c(c(C)c1O)CCC(C)(COc1ccc(CC3SC(=O)NC3=O)cc1)O2 (stereo not drawn) [Troglitazone]
[3]
  toxicity that ended marketing or development: hepatotoxicity
[4]
  increased CCR2 expression relative to control: 6 ×
[2]
  induction of apoptosis (Caspase 3/7 activity): potent inducers of apoptosis
[1]
  cell death at 175 μM: significant cell death
[1]; [5]
  LD50: 18 µM

## Cc1cccc(Nc2cc(Cl)nc(SCC(=O)O)n2)c1C [Wyeth14643]
[1]
  LD50: 226 µM

## N-Acetly-Asp-Glu-Val-Asp-aldehyde [DEVD]
[2]; co-administered with TZDs
  block of TZD-induced apoptosis: efficiently blocked
